Measurements from publication PMC3844181, “Studies of the Interaction between Isoimperatorin and Human Serum Albumin by Multispectroscopic Method: Identification of Possible Binding Site of the Compound Using Esterase Activity of the Protein” (The Scientific World Journal, 2013).

Columns and labels:
[1] = biological target: T1, Human serum albumin (HSA) (Homo sapiens, UniProt P02768); experiment: ANS fluorescence titration, Scatchard plot; assay type: binding
T1 construct: gene ALB; mature serum albumin, 585 residues, monomer
Source text: ANS fluorescence titration, Scatchard plot on Human serum albumin (HSA)

[2] = biological target: T1, Human serum albumin (HSA); experiment: 4-nitrophenyl acetate esterase assay; assay type: biochemical; settings: 15 μM HSA, 250 μM pNPA, 250 μM compound, site I
[3] = biological target: T1, Human serum albumin (HSA); experiment: intrinsic Trp fluorescence quenching, modified Stern-Volmer plot; assay type: binding; settings: 298 K, 50 mM phosphate pH 7.5, 3 μM HSA, excitation 295 nm; n = 0.862; site I; double-log
Source text: intrinsic Trp fluorescence quenching, modified Stern-Volmer plot on Human serum albumin (HSA)

T1 sequence (P02768 25-609): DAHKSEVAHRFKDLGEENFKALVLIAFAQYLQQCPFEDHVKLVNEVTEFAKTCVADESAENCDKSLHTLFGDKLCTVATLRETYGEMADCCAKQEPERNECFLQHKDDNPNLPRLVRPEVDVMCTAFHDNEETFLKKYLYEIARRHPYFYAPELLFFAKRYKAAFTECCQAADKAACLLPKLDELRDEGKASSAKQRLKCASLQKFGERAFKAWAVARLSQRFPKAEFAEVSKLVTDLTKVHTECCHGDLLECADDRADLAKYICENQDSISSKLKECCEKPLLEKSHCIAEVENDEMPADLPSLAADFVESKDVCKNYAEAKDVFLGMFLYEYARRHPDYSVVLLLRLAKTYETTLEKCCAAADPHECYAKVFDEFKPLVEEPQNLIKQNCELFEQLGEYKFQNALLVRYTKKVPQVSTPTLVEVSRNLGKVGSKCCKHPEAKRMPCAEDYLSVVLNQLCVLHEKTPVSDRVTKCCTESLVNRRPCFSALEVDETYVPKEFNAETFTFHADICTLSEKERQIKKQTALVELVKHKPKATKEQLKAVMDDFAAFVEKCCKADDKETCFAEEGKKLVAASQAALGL

O=S(=O)(O)c1cccc2cccc(Nc3ccccc3)c12 [ANS]
Kd [1]: 900 ± 50 nM

COc1ccc2ccc(=O)oc2c1CC=C(C)C [osthole]
inhibition of esterase activity [2]: isoimperatorin, aspirin, warfarin, indomethacin, and osthole binding sites on the HSA molecule are the same

CC(C)=CCOc1c2ccoc2cc2oc(=O)ccc12 [isoimperatorin, 4-[(3-methyl-2-butenyl)oxy]-7H-furo [3,2-g] [1] benzopyran-7-one]
10^-5 × K b (M^-1) [3]: (11.02 ± 0.10) × 10^5 M^-1 | inhibition of esterase activity ([2]; competitive): warfarin and indomethacin (as site I marker) and isoimperatorin inhibited competitively the HSA-catalyzed hydrolysis

CC(=O)Oc1ccccc1C(=O)O [aspirin]
inhibition of esterase activity [2]: isoimperatorin, aspirin, warfarin, indomethacin, and osthole binding sites on the HSA molecule are the same
